# Reference: US10765745B2, “Multifunctional nanoparticle systems and methods for cancer diagnosis and combination therapy” (BOARD OF REGENTS, THE UNIVERSITY OF TEXAS SYSTEM, priority 2015, dated 2020)
# Experiments:
# [1] = system: folate receptors on H460 lung cancer cells; assay: Folic acid binding, Resonant Sensors Bioassay (peak shift); conditions: 0-15 μM, 3 hours
# Experimental: (§1) The binding of folic acid to folate receptors was studied using Resonant Sensors Bioassay system (e.g., available from Resonant Sensors Inc. (RSI), located in Arlington, Tex.). A549 and H460 lung cancer cells as well as AT1 cells were seeded at a density of 10,000 cells/well in RSI sensor 96-well plates, which were incubated at […] for 24 hours to allow cell attachment. For folic acid binding efficiency studies, the cells were incubated with folic acid at varying concentrations (i.e., 0, 0.1, 1, 5, 10, 15 μM) for 3 hours in the RSI system and peak shift with cell binding over time was studied.
# [2] = system: folate receptors on A549 lung cancer cells; assay: as above; conditions: 0-15 μM, 3 hours
# Experimental: as §1
# [3] = system: human dermal fibroblasts (HDFs); assay: 24-hour cytocompatibility (MTS and Picogreen dsDNA); type: cell-based; conditions: 10 μM
# Experimental: (§2) Human dermal fibroblasts (HDFs) and AT1 cells were seeded at a density of 5000 cells/well in a 96 well plate and allowed to attach at 37° C. and 5% CO2 for 24 hours. […] Following incubation, the cells were washed with 1× sterile PBS and cell viability was assessed using MTS and Picogreen dsDNA assays (e.g., available from Life Technologies, located in Grand Island, N.Y.) according to manufacturer's instructions. MTS assay measures the percentage of cells alive in each well compared to the controls. These findings were validated using Picogreen dsDNA assay which calculates the amount of total cell DNA present in each well compared to the control.
# AT1 cells [4] = assay: as above; type: cell-based, human; conditions: 10 μM
# Experimental: as §2
# [5] = system: folate receptors on AT1 cells; assay: Folic acid binding, Resonant Sensors Bioassay (peak shift); design: species or system human; conditions: 0-15 μM, 3 hours
# Experimental: as §1
# AT1 cells [6] = assay: Cell activation study: cytokine ELISA; type: cell-based, human; conditions: 24 hours; MDNPs at 1 mg/mL; LPS positive control
# Experimental: (§3) To study cytokine production, the concentration of interleukin-1 alpha (IL-1∞), interleukin-1 beta (IL-1β), interleukins 2, 4, 6, 8, 10, 12, 10A, and tumor necrosis factor-alpha (TNF-α) in the medium was measured using Multi-Analyte ELISAArray Kit (SA Biosciences, Frederick, Md.) according to the manufacturer's directions.
# The cells stimulated using LPS (positive control) produced 0.25 ng/ml IL-6, 1.27 ng/ml IL-8, 0.24 ng/ml IL-10 and 0.11 ng/ml TNF-α inflammatory cytokines.
# human AT1 cells = assay: Cell activation study: intracellular ROS production (H2DCFDA); type: cell-based; conditions: positive control, 10 μg/ml
# Experimental: A cell activation study was conducted to determine whether NP uptake causes oxidative stress in the cells in vitro. For example, human AT1 cells were seeded in tissue culture plates and incubated overnight as described earlier. The next day, cells were exposed to two different concentrations of each NP (250 μg/ml and 1000 μg/ml) and incubated for another 24 hours. Cells exposed to 10 μg/ml lipopolysaccharide (LPS) were considered as a positive control while cells exposed to media only served as the negative control. To detect the Intracellular Reactive Oxygen Species (ROS) production on NP exposure, cells were then washed thrice with PBS and incubated with 5 μM of 2′,7′-dichlorodihydrofluorescein diacetate (H2DCFDA) solution in PBS for 30 minutes. The cells were then washed again with PBS and fluorescence was measured at λex of 485 nm and […] using a spectrophotometer.
# as §3
Compound,peak shift [1],peak shift [2],cytocompatibility (MTS) [3],cytocompatibility (MTS) (AT1 cells [4]),peak shift [5],IL-6 produced (AT1 cells [6]),IL-8 produced (AT1 cells [6]),IL-10 produced (AT1 cells [6]),TNF-α produced (AT1 cells [6]),"ROS production, % of the control (human AT1 cells)"
Nc1nc2ncc(CNc3ccc(C(=O)N[C@@H](CCC(=O)O)C(=O)O)cc3)nc2c(=O)[nH]1 [folic acid],comparatively larger peak shift,increase in peak shift,non-toxic,non-toxic,no dose-dependent increase in peak shift,–,–,–,–,–
lipopolysaccharide [LPS],–,–,–,–,–,0.25 ng/mL,1.27 ng/mL,0.24 ng/mL,0.11 ng/mL,425%
